For assay [1], the system named is cerebrospinal fluid (CSF) glycine levels. Description: CSF-glycine assay after oral administration. To be noted: rats; for change in vivo at 10 mg/kg / change in vivo at 30 mg/kg / change in vivo at 100 mg/kg / change in vivo at 3 mg/kg: Rattus norvegicus, po, read-out: % CSF Glycine Increase versus Vehicle Control. It is filed as in vivo. The procedure:
This study measured cerebrospinal fluid (CSF) glycine levels after oral administration of test compound. […] After the specified pretreatment time, the rats were euthanized by CO2 asphyxiation and a hypodermic needle was inserted into the cisterna magna to withdraw 50-100 μl of CSF. The CSF was diluted with deuterated-glycine as an internal standard glycine was quantified by LC/MS/MS.

The target of assay [2] is T1, glycine transporter-1 (GlyT-1) (Homo sapiens, UniProt P48067).
T1 construct: JAR cells (ATCC#HTB-144), which endogenously express GlyT-1; host or cells: JAR human choriocarcinoma cells
T1 sequence (P48067 1-706): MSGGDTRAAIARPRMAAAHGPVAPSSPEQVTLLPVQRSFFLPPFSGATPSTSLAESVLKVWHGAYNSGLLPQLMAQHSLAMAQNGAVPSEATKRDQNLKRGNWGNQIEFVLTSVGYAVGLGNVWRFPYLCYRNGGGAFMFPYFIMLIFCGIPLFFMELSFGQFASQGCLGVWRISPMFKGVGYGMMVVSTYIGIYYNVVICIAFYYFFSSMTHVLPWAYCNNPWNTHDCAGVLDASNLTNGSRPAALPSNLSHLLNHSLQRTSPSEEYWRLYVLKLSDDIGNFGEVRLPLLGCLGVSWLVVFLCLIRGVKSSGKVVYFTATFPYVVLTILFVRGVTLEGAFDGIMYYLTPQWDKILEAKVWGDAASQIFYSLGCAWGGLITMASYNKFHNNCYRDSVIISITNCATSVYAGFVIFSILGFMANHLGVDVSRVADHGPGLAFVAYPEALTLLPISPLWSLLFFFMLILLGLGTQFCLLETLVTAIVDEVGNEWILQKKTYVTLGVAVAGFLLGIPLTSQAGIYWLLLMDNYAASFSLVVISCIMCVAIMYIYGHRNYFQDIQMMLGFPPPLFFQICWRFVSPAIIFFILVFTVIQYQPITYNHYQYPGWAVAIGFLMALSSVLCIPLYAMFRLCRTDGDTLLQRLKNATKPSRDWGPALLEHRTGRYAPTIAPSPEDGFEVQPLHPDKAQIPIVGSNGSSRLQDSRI
Briefly: [14C]glycine uptake assay in JAR cells endogenously expressing GlyT-1 (scintillation proximity). Type of assay: cell-based. To be noted: JAR cells, [14C]glycine 5 μM, 3 hour incubation; read-out: GlyT-1 IC50. Summed up: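 IC50 comes from a four-parameter fit of nine-point, duplicate curves measuring inhibition of 5 μM [14C]glycine uptake, read by scintillation proximity after 3 h at 37 °C. Cells are human JAR, which express GlyT-1 endogenously, given 10 min compound pre-treatment in pH 7.4 buffer with 5 mM alanine and 0.75% DMSO.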

In assay [3] the target is T2, glycine transporter-2 (GlyT-2) (Homo sapiens, UniProt Q9Y345).
T2 construct: expressed in transfected cells
T2 sequence (Q9Y345 1-797): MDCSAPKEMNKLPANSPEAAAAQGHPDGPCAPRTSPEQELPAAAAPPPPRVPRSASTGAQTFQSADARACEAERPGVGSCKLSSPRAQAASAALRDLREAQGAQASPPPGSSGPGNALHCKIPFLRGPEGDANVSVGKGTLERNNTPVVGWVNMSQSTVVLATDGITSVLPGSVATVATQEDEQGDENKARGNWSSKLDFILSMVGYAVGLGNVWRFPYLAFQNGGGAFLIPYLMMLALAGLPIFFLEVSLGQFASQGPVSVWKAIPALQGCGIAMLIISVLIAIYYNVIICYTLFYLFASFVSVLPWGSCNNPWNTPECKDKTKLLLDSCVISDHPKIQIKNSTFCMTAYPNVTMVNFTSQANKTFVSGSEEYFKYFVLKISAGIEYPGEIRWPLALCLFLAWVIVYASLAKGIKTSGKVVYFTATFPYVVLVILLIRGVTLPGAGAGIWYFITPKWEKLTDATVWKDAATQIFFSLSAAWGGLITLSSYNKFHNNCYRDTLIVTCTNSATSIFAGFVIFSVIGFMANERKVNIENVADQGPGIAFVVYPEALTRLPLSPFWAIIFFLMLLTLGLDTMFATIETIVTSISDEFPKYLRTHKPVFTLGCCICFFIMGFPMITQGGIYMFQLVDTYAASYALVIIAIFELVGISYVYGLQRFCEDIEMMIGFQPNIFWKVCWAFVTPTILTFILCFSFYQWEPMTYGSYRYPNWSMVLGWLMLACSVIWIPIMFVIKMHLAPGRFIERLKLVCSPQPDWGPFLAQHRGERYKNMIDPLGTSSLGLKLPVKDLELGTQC
Description: [14C]glycine uptake assay in HEK-GlyT-2 transfected cells. Type of assay: cell-based. To be noted: HEK-GlyT-2 cells.

[4] abbreviates: 0.5 h, dose 10 mg/kg, pretreatment 30 mins.
Where [5] appears, read: 0.5 h, dose 30 mg/kg, pretreatment 30 mins.
Where [6] appears, read: 2 h, dose 10 mg/kg, pretreatment 120 mins.
Where [7] appears, read: 2 h, dose 30 mg/kg, pretreatment 120 mins.
Setting [8] is: 6 h, dose 10 mg/kg, pretreatment 360 mins.

pIC50: −log10 of the molar value. Counter-ions that a name gives are not always drawn. Like-named read-outs stand apart in the source and are kept apart here. Where only a bound is given, the exact number is not on record here.

Data on ten compounds can be found in patent US9045445B2, “Glycine transporter-1 inhibitors, methods of making them, and uses thereof” (Albany Molecular Research, Inc., priority 2010, dated 2015).

As for `CCCS(=O)(=O)N1CCN(C2(CNC(=O)c3ccc(C(F)(F)F)cc3Cl)CCC(F)(F)CC2)CC1` [compound 151, N-((4,4-Difluoro-1-(4-(propylsulfonyl)piperazin-1-yl)cyclohexyl)methyl)-2-chloro-4-(trifluoromethyl)benzamide Hydrochloride], the change in vivo at 10 mg/kg came out at 209% in assay [1] (setting [4]) and 169% in assay [1] (setting [6]). The values for the change in vivo at 30 mg/kg in assay [1] (setting [5]) and in assay [1] (setting [7]) were 221% and 249%, respectively. In addition, the change in vivo at 100 mg/kg is 204% in assay [1] (0.5 h, pretreatment 30 mins) and 238% in assay [1] (2 h, pretreatment 120 mins). Besides, the pIC50 was 7.77 in assay [2] and under 4.12 in assay [3].

On to `Cn1cc(S(=O)(=O)N2CCN(C3(CNC(=O)c4ccc(C(F)(F)F)cc4C(F)(F)F)CCC(F)(F)CC3)CC2)nn1` [compound 221, N-((4,4-Difluoro-1-(4-(1-methyl-1H-1,2,3-triazol-4-ylsulfonyl)piperazin-1-yl)cyclohexyl)methyl)-2,4-bis(trifluoromethyl) benzamide Hydrochloride], for which the values for the change in vivo at 10 mg/kg in assay [1] (setting [6]) and in assay [1] (setting [8]) were 226% and 241%, respectively. Further, the negative logarithm of the IC50 (pIC50) was 9.00 in assay [2] and under 4.12 in assay [3].

For the compound `Cn1cnc(S(=O)(=O)N2CCN(C3(CNC(=O)c4ccc(F)cc4F)CCC(F)(F)CC3)CC2)c1` [compound 162, N-((4,4-difluoro-1-(4-(1-methyl-1H-imidazol-4-ylsulfonyl)piperazin-1-yl)cyclohexyl)methyl)-2,4-difluorobenzamide Hydrochloride], the change in vivo at 10 mg/kg stood at 154% in assay [1] (setting [4]) and 130% in assay [1] (setting [6]). Moreover, the change in vivo at 30 mg/kg was 178% in assay [1] (setting [5]) and 156% in assay [1] (setting [7]). The change in vivo at 100 mg/kg was 207% in assay [1] (0.5 h, pretreatment 30 mins) and 156% in assay [1] (2 h, pretreatment 120 mins). For the same compound, the pIC50 was 7.34 in assay [2] and under 3.87 in assay [3].

With `CC(NC(=O)c1ccc(C(F)(F)F)cc1Cl)C1(N2CCN(S(=O)(=O)c3cn(C)nn3)CC2)CCC(F)(F)CC1` (centres unmarked) [compound 224, 2-Chloro-N-(1-(4,4-difluoro-1-(4-(1-methyl-1H-1,2,3-triazol-4-ylsulfonyl)piperazin-1-yl)cyclohexyl)ethyl)-4-(trifluoromethyl)benzamide Hydrochloride], the change in vivo at 3 mg/kg in assay [1] (2 h, pretreatment 120 mins) was found to be 186%. For the same compound, in assay [1] (setting [6]), the change in vivo at 10 mg/kg was 347%. Further, the pIC50 in assay [2] is 9.00; in assay [3], under 4.12.

Regarding “N-((4,4-Difluoro-1-(4- (propylsulfonyl)piperazin- 1-yl)cyclohexyl)methyl)- 2,4-bis(trifluoromethyl) benzamide Hydrochloride [compound 246]”, the “% CSF Glycine Increase versus Vehicle Control” value is listed as 191% in assay [1] (dose 10 mg/kg, pretreatment 120 mins); 166% in assay [1] (dose 10 mg/kg, pretreatment 360 mins); 205% in assay [1] (dose 30 mg/kg, pretreatment 120 mins); 244% in assay [1] (dose 30 mg/kg, pretreatment 360 mins). Further, the negative logarithm of the IC50 (pIC50) in assay [2] was 8.15; in assay [3], under 4.12.

Take `CC(NC(=O)c1ccc(C(F)(F)F)cc1C(F)(F)F)C1(N2CCN(S(=O)(=O)c3cn(C)nn3)CC2)CCC(F)(F)CC1` (centres unmarked) [compound 226, N-(1-(4,4-Difluoro-1-(4-(1-methyl-1H-1,2,3-triazol-4-ylsulfonyl)piperazin-1-yl)cyclohexyl)ethyl)-2,4-bis(trifluoromethyl) benzamide Hydrochloride]: the change in vivo at 3 mg/kg worked out at 243% in assay [1] (2 h, pretreatment 120 mins) and 227% in assay [1] (6 h, pretreatment 360 mins). Further, the change in vivo at 10 mg/kg in assay [1] (setting [6]) is 344%; in assay [1] (setting [8]) it was 339%. Moreover, the pIC50 in assay [2] was 9.00; in assay [3], under 4.12.

As to `Cn1cnc(S(=O)(=O)N2CCN(C3(CNC(=O)c4c(F)cccc4F)CCC(F)(F)CC3)CC2)c1` [compound 163, N-((4,4-Difluoro-1-(4-(1-methyl-1H-imidazol-4-ylsulfonyl)piperazin-1-yl)cyclohexyl)methyl)-2,6-difluorobenzamide Hydrochloride], the change in vivo at 10 mg/kg amounted to 123% in assay [1] (setting [4]) and 132% in assay [1] (setting [6]). The values for the change in vivo at 30 mg/kg in assay [1] (setting [5]) and in assay [1] (setting [7]) were 202% and 215%, respectively. Moreover, the change in vivo at 100 mg/kg was 280% in assay [1] (0.5 h, pretreatment 30 mins) and 221% in assay [1] (2 h, pretreatment 120 mins). For the same compound, the pIC50 in assay [2] was 7.74; in assay [3], 4.13.

Consider `CCCS(=O)(=O)N1CCN(C2(CNC(=O)c3ccc(C(F)(F)F)cc3C(F)(F)F)CCOCC2)CC1` [compound 267, N-((4-(4-(propylsulfonyl)piperazin-1-yl)tetrahydro-2H-pyran-4-yl)methyl)-2,4-bis(trifluoromethyl) benzamide Hydrochloride], for which the change in vivo at 10 mg/kg in assay [1] (setting [6]) was 138%; in assay [1] (setting [8]), 129%. The change in vivo at 30 mg/kg in assay [1] (setting [7]) amounted to 229%; in assay [1] (6 h, dose 30 mg/kg, pretreatment 360 mins) it was 190%. Moreover, the pIC50 in assay [2] was 7.34.

Consider `COc1cc(F)cc(C)c1C(=O)NCC1(N2CCN(S(=O)(=O)CC3CC3)CC2)CCCCCC1` [compound 86, N-((1-(4-(Cyclopropylmethyl-sulfonyl)piperazin-1-yl)cycloheptyl)methyl)-4-fluoro-2-methoxy-6-methylbenzamide Hydrochloride], for which the pIC50 in assay [2] is 7.00; in assay [3], under 4.12.

Consider `Cn1cnc(S(=O)(=O)N2CCN(C3(CNC(=O)c4c(N)cccc4Cl)CCCCC3)CC2)c1` [compound 99, 2-Amino-6-chloro-N-((1-(4-(1-methyl-1H-imidazol-4-ylsulfonyl)piperazin-1-yl)cyclohexyl)methyl) benzamide Hydrochloride], for which the figures for the pIC50 in assay [2] and in assay [3] were 8.70 and under 4.12, respectively.
